Active and inactive are the calls of the source. The rule behind the calls is not given here.
How the values were obtained:
[1] = test system: Mycobacterium tuberculosis; experiment: Antibacterial activity against Mycobacterium tuberculosis; format: functional, organism-based
[2] = test system: Bone marrow cell; experiment: Cytotoxicity against Flt3L-cultured mouse pDC-rich bone marrow cells assessed as cell viability at 1 to 10 uM incubated for 24 hrs by MTT assay; format: cell-based
[3] = test system: Ramos; experiment: Cytotoxicity against human Ramos cells; format: functional, cell-based
[4] = test system: Bone marrow cell; experiment: Cytotoxicity against M-CSF-cultured mouse macrophage-rich bone marrow cells assessed as cell viability at 1 to 10 uM incubated for 24 hrs by MTT assay; format: cell-based
[5] = organism: Mus musculus; experiment: (§1) Immunostimulatory activity in CD4-positive T cells isolated from OVA-specific OT-II TCR transgenic mouse model assessed as T cell activation by measuring increase in IL-2 production at 10 uM compound incubated with GM-CSF cultured mouse bone marrow cells for 24 hrs followed by addition of isolated CD4+ T cells and further incubation for 5 days by ELISA; format: functional, cell-based
[6] = test system: Dendritic cell; experiment: Immunostimulatory activity in GM-CSF-cultured bone marrow-derived dendritic cells isolated from get40 cytokine reporter mouse model assessed as induction of IL12p40 production at 0.1 to 10 uM incubated for 16 hrs by flow cytometry relative to control; format: functional
[7] = test system: Dendritic cell; experiment: Immunostimulatory activity in GM-CSF-cultured bone marrow-derived dendritic cells isolated from get40 cytokine reporter mouse model assessed as induction of IL12p40 production at 0.1 to 10 uM incubated for 16 hrs in presence of LPS by flow cytometry relative to control; format: functional
[8] = test system: Jurkat; experiment: Cytotoxicity against human Jurkat cells; format: functional, cell-based
[9] = test system: Bone marrow cell; experiment: Cytotoxicity against GM-CSF-cultured mouse cDC-rich bone marrow cells assessed as cell viability at 1 to 10 uM incubated for 24 hrs by MTT assay; format: cell-based
[10] = test system: Dendritic cell; experiment: Immunostimulatory activity in GM-CSF-cultured bone marrow-derived dendritic cells isolated from get40 cytokine reporter mouse model assessed as induction of IL12p40 production at 0.1 to 10 uM incubated for 16 hrs in presence of CpG 2216 by flow cytometry relative to control; format: functional
[11] = organism: Mus musculus; experiment: as §1, with “production at 1 uM compound” for “production at 10 uM compound”, “marrow cells in presence of CpG 2216 for 24” for “marrow cells for 24”; format: functional, cell-based

Compound | Activity [1] | Activity [2] | Activity [3] | Activity [4] | Activity [5] | fold change (FC) [6] | fold change (FC) [7] | Activity [8] | Activity [9] | fold change (FC) [10] | Activity [11]
[O-][n+]1ccc2c([nH]c3ccccc32)c1C1=C[C@@]2(O)CC/C=C\CCCCN3CC[C@@H]1[C@]1(CC/C=C\CCCCN[C@H]12)C3 | Active | Non-Toxic | Active | Non-Toxic | inactive | 2 | 2 | Active | Non-Toxic | 2 | 
C=C1[C@@H](C)[C@H]2[C@H](Cc3ccccc3)NC(=O)[C@]23[C@H](OC(C)=O)/C=C/[C@@](C)(O)C(=O)[C@@H](C)C/C=C/[C@H]3[C@@H]1O [CYTOCHALASIN D] |  | Non-Toxic | Active | Non-Toxic |  | 2 | 2 | Active | Non-Toxic | 2 | Active
C=C1[C@@H](C)[C@H]2[C@H](Cc3ccccc3)NC(=O)[C@]23[C@H](OC(C)=O)/C=C/[C@@H](C)C[C@@H](C)C/C=C/[C@H]3[C@@H]1O |  | Non-Toxic | Active | Non-Toxic |  | 2 | 2 | Active | Non-Toxic | 2 | Active

Reference: ChEMBL document CHEMBL4406879, “A mouse model-based screening platform for the identification of immune activating compounds such as natural products for novel cancer immunotherapies” (Bioorg Med Chem, 2019)
